Experimental data reported in patent US6506766B1 (Abbott Laboratories, priority 1998, dated 2003).
Like-named read-outs stand apart in the source and are kept apart here.

Columns and labels:
[1] = target: T1, human glucocorticoid receptor-α [GRX] isoform (Homo sapiens, UniProt P04150); assay: Radioligand binding with human glucocorticoid receptor cytosol ([3H]-dexamethasone competition); conditions: read-out: Ki (nM) GR
T1 construct: host or cells: insect SF21 cells (baculovirus)
T1 sequence (P04150 1-777): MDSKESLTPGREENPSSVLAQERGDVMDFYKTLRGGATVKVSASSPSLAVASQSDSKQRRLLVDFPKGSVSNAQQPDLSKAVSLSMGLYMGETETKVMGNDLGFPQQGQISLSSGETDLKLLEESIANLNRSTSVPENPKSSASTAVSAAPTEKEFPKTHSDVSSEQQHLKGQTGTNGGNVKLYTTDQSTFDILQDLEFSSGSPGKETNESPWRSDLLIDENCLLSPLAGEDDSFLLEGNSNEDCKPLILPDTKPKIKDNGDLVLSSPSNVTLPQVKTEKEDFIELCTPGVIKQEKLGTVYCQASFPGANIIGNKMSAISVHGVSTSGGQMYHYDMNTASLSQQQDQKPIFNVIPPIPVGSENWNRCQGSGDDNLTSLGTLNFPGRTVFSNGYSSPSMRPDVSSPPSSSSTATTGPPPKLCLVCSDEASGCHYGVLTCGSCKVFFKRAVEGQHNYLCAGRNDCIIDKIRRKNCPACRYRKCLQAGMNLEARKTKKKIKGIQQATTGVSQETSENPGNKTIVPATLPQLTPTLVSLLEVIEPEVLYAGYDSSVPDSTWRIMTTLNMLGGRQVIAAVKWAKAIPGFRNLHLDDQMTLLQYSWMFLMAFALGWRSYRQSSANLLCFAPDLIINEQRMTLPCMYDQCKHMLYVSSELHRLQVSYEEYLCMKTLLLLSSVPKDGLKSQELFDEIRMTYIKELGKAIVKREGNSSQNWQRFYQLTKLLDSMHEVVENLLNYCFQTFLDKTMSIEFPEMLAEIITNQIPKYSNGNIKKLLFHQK
Excerpt: Briefly, cytosol preparations of human glucocorticoid receptor-α [GRX] isoform and human progesterone receptor-A [PRA] isoform were obtained from Ligand Pharmaceuticals (San Diego, Calif.). Both receptor cDNAs were cloned into baculovirus expression vectors and expressed in insect SF21 cells. [^3H]-dexamethasone (Dex, specific activity 82-86 Ci/mmole) and [^3H]-progesterone (Prog, specific activity 97-102 Ci/mmol) were purchased from Amersham Life Sciences (Arlington Heights, Ill.). Glass fiber type C multiscreen MAFC NOB plates were from Millipore (Burlington, Mass.). Hydroxyapatide Bio-Gel HTP gel was from Bio-Rad Laboratories (Hercules, Calif.). Tris(hydroxymethyl)aminomethane (Tris), ethylenediaminetetraacetic acid (EDTA), glycerol, dithiothreitol (DTT) and sodium moylybdate were obtained from Sigma Chemicals (St. Louis, Mo.). Microscint-20 scintillation fluid was from Packard Instrument (Meriden, Conn.).
(§1) Stock solutions (32 mM) of compounds were prepared in dimethylsulfoxide (DMSO), and 50× solutions of test compounds were prepared from the 32 mM solution with a 50:50 mixture of DMSO/ethanol. The 50× solution was then diluted with binding buffer that contained 10 mM Tri-HCl, 1.5 mM EDTA, 10% glycerol, 1 mM DTT, 20 mM sodium molybdate, pH 7.5 @4° C. 1% DMSO/ethanol was present in the binding assay.
For GR binding assays, [^3H]-Dex (˜35,000 dpm (˜0.9 nM)), GRX cytosol (˜35 μg protein), test compounds and binding buffer were mixed in a total volume of 200 μL and incubated at 4° C. overnight in a plate shaker. Specific binding was defined as the difference between binding of [^3H]Dex in the absence and in the presence of 1 μM unlabelled Dex.
(§2) After an overnight incubation, 50 μL of hydroxyapatite (25% weight/volume) slurry were added to each well and plates were incubated for 10 min at 0° C. in a plate shaker. Plates were suctioned with a Millipore vacuum manifold and each well was rinsed with 300 μL of ice-cold binding buffer. A 250 μL aliquot of Packard Microscint-20 was added to each well and the wells were shaken at room temperature for 20 minutes. The amount of radioactivity was determined with a Packard TopCount plate reader.
(§3) The Ki of test compounds was determined using the Cheng-Prusoff equation Ki=IC50/(1+[L*]/[KL]) where L* is the concentration of radioligand and KL is the dissociation constant of the radioligand determined from saturation analysis.

[2] = target: T2, human progesterone receptor-A [PRA] isoform (Homo sapiens, UniProt P06401); assay: Radioligand binding with human progesterone receptor cytosol ([3H]-progesterone competition); conditions: read-out: Ki (nM) PR
T2 construct: host or cells: insect SF21 cells (baculovirus)
T2 sequence (P06401 1-769 isoform P06401-2): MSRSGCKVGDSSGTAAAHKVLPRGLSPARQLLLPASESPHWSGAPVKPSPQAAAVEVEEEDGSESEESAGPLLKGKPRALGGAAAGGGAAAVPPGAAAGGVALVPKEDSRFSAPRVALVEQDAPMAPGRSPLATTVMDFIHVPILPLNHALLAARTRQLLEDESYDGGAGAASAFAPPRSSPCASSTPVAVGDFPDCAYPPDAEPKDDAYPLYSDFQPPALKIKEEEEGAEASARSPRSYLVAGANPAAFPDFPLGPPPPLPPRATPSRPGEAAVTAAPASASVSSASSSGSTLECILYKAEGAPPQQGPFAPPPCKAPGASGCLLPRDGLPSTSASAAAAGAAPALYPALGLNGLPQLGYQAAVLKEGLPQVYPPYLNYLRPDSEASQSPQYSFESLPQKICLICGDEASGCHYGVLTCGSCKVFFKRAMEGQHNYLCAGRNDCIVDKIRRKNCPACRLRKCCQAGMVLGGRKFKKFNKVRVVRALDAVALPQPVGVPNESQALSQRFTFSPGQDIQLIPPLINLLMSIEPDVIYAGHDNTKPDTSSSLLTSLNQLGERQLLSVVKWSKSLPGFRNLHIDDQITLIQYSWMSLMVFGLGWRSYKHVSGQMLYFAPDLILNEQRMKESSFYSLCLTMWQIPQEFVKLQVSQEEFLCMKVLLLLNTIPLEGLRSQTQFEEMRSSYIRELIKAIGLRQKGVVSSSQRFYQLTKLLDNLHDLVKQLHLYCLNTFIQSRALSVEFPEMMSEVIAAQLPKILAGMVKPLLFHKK
Description: Both receptor cDNAs were cloned into baculovirus expression vectors and expressed in insect SF21 cells.
as §1
For PR binding assays, [^3H]Prog (˜36,000 dpm (˜0.8 nM)), PRA cytosol (˜40 μg protein), test compounds and binding buffer were mixed in a total volume of 200 μL and incubated at 4° C at overnight in a plate shaker. Specific binding was defined as the difference between binding of [^3H]Prog in the absence and in the presence of 3 μM unlabelled Prog.
as §2, §3

[3] = GRX cytosol expressed in insect SF21 cells, [3H]-Dex ~0.9 nM, 4° C. overnight, Ki by Cheng-Prusoff, KL ~[…]
[4] = PRA cytosol expressed in insect SF21 cells, [3H]Prog ~0.8 nM, 4° C. overnight, Ki by Cheng-Prusoff, KL ~4.5 nM

COc1c(O)ccc2c1-c1ccc3c(c1C(C1CCCC1)O2)C(C)=CC(C)(C)N3 (centres unmarked) [Example 384, 2,5-Dihydro-9-hydroxy-10-methoxy-2,2,4-trimethyl-5-cyclopentyl-1H-[1]benzopyrano[3,4-f]quinoline]
Ki [1, 3]: 0.67 nM | Ki [2, 4]: 197 nM

CC1=CC(C)(C)Nc2ccc3c(c21)C(c1cccc(C(F)(F)F)c1)Oc1ccc(O)c(Cl)c1-3 (centres unmarked) [Example 218, 10-Chloro-9-hydroxy-5-(3-trifluoromethylphenyl)-2,2,4-trimethyl-1H-2,5-dihydro-[1]benzopyrano[3,4-f]quinoline]
Ki [1, 3]: 1.6 nM | Ki [2, 4]: 227 nM

COc1c(O)ccc2c1-c1ccc3c(c1C(Cc1ccccc1)O2)C(C)=CC(C)(C)N3 (centres unmarked) [Example 262, 2,5-Dihydro-9-hydroxy-10-methoxy-5-(phenylmethyl)-2,2,4-trimethyl-1H-[1]benzopyrano[3,4-f]quinoline]
Ki [1, 3]: 1.1 nM | Ki [2, 4]: 150 nM

C=CCC1Oc2ccc(OC(=O)NCC(=O)OCC)c(OC)c2-c2ccc3c(c21)C(C)=CC(C)(C)N3 (centres unmarked) [Example 427, 9-(2-Ethoxy-2-oxo-ethylaminocarbonyl)-oxy-10-methoxy-5-(3-propenyl)-2,2,4-trimethyl-1H-2,5-dihydro-[1]benzopyrano[3,4-f]quinoline]
Ki [1]: 7.8 nM | Ki [2]: 2200 nM

C=C(C)CC1Oc2ccc(O)c(OC)c2-c2ccc3c(c21)C(C)=CC(C)(C)N3 (centres unmarked) [Example 289, 2,5-Dihydro-9-hydroxy-10-methoxy-2,2,4-trimethyl-5-(2-methyl-3-propenyl)-1H-[1]benzopyrano[3,4-f]quinoline]
Ki [1, 3]: 0.73 nM | Ki [2, 4]: 260 nM

COc1cccc2c1-c1ccc3c(c1C(c1cc(C)cc(C(C)(C)O)c1)O2)C(C)=CC(C)(C)N3 (centres unmarked) [Example 111, 3-(2,5-Dihydro-10-methoxy-2,2,4-trimethyl-1H-[1benzopyrano3,4-f]quinolin-5-yl)5-trimethylbenzenemethanol]
Ki [1, 3]: 7.2 nM | Ki [2, 4]: ≥ 10000 nM

COc1cccc2c1-c1ccc3c(c1C(c1ccc(OC(C)=O)cc1)O2)C(C)=CC(C)(C)N3 (centres unmarked) [Example 94, 4-(2,5-Dihydro-10-methoxy-2,2,4-trimethyl-1H-[1]benzopyrano[3,4-f]quinolin5-yl)phenolacetate (Ester)]
Ki [1, 3]: 43 nM | Ki [2, 4]: ≥ 10000 nM

2,5-Dihydro-9-hydroxy-10-methoxy-5-propyl-2,2,4-trimethyl-1H-[1]benzopyrano[3,4-f]quinoline [Example 245]
Ki [1]: 0.95 nM | Ki [2]: 119 nM

5-Butyl-2,5-dihydro-9-hydroxy-10-methoxy-2,2,4-trimethyl-1H-[1]benzopyrano[3,4-f]quinoline [Example 251]
Ki [1]: 0.87 nM | Ki [2]: 163 nM

COc1cccc2c1-c1ccc3c(c1C(C1CCC=C(CO)C1)O2)C(C)=CC(C)(C)N3 (centres unmarked) [Example 150, 2,5-Dihydro-10-methoxy-5-(3-hydroxymethyl-3-cyclohexenyl)-2,2,4-trimethyl-1H-[1]benzopyrano[3,4-f]quinoline]
Ki [1, 3]: 106 nM | Ki [2, 4]: ≥ 10000 nM

C=CCC1Oc2ccc(OC(=O)CCC(=O)N(C)C)c(OC)c2-c2ccc3c(c21)C(C)=CC(C)(C)N3 (centres unmarked) [Example 296, 2,5-Dihydro-9-(4-N,N-dimethylamino-4-oxo-butanoyloxy)-10-methoxy-2,2,4-trimethyl-5(2-propenyl)-1H-[1]benzopyrano[3,4-f]quinoline]
Ki [1, 3]: 0.63 nM | Ki [2, 4]: 476 nM

CC1=CC(C)(C)Nc2ccc3c(c21)C(c1cccs1)Oc1ccc(O)c(Cl)c1-3 (centres unmarked) [Example 383, 2,5-Dihydro-9-hydroxy-10-chloro-2,2,4-trimethyl-5-(2-thienyl)-1H-[1]benzopyrano[3,4-f]quinoline]
Ki [1, 3]: 4.8 nM | Ki [2, 4]: 46 nM

COc1cccc2c1-c1ccc3c(c1C(c1ccccn1)O2)C(C)=CC(C)(C)N3 (centres unmarked) [Example 213, 2,5-Dihydro-10-methoxy-5-(2-pyridyl)-2,2,4-trimethyl-1H-[1]benzopyrano[3,4-f]quinoline]
Ki [1, 3]: 67 nM | Ki [2, 4]: ≥ 10000 nM

COc1cccc2c1-c1ccc3c(c1C(c1ccccc1)O2)C(C)=CC(C)(C)N3 (single isomer, unassigned) [Example 26, (±)-2,5-Dihydro-10-methoxy-2,2,4-trimethyl-5-phenyl-1H-[1]benzopyrano[3,4-f]quinoline]
Ki [1, 3]: 2.1 nM | Ki [2, 4]: 13400 nM

CC1=C[C@@H]([C@@H]2Oc3ccc(O)c(Cl)c3-c3ccc4c(c32)C(C)=CC(C)(C)N4)CCC1 [Example 417, (−)(5S,3′S)2,5-Dihydro-9-hydroxy-10-chloro-2,2,4-trimethyl-5-(1-methylcyclohexen-3-yl)-1H-[1]benzopyrano[3,4-f]quinoline]
Ki [1, 3]: 3 nM | Ki [2, 4]: 10.5 nM

COc1cccc2c1-c1ccc3c(c1C(c1cccc(CCN(C)C)c1)O2)C(C)=CC(C)(C)N3 (centres unmarked) [Example 318, 2,5-Dihydro-10-methoxy-5-(3-(2-(N,N-dimethylamino)ethyl)phenyl)-2,2,4-trimethyl-1H-[1]benzopyrano[3,4-f]quinoline]
Ki [1, 3]: 553 nM | Ki [2, 4]: ≥ 10000 nM

COc1c(O)ccc2c1-c1ccc3c(c1C(c1ccccc1C)O2)C(C)=CC(C)(C)N3 (racemic) [Example 275, (±)2,5-Dihydro-9-hydroxy-10-methoxy-2,2,4-trimethyl-5-(2-methylphenyl)-1H-[1]benzopyrano[3,4-f]quinoline]
Ki [1, 3]: 11.7 nM | Ki [2, 4]: 2870 nM

COc1c(O)ccc2c1-c1ccc3c(c1[C@H]([C@H]1C=CCCC1)O2)C(C)=CC(C)(C)N3 [Example 273]
Ki [1, 3]: 0.56 nM | Ki [2, 4]: 35.8 nM

CC1=CC(C)(C)Nc2ccc3c(c21)C(c1ccccc1)Oc1cccc(CO)c1-3 (centres unmarked) [Example 336, 2,5-Dihydro-10-(hydroxymethyl)-5-phenyl-2,2,4-trimethyl-1H-[1]benzopyrano[3,4-f]quinoline]
Ki [1, 3]: 9.5 nM | Ki [2, 4]: 1560 nM

C=CCOc1cccc2c1-c1ccc3c(c1C(c1ccccc1)O2)C(C)=CC(C)(C)N3 (centres unmarked) [Example 76, 2,5-Dihydro-2,2,4-trimethyl-5-phenyl-10-(2-prenyloxy)-1H-[1]benzopyrano[3,4-f]quinoline]
Ki [1, 3]: 152 nM | Ki [2, 4]: ≥ 10000 nM

C=CCC1Oc2cccc(OC)c2-c2ccc3c(c21)C(C)=CC(C)(C)N3 (centres unmarked) [Example 2, 2,5-Dihydro-10-methoxy-2,2,4-trimethyl-5-(2-propenyl)-1H-[1]benzopyrano[3,4-f]quinoline]
Ki [1, 3]: 7.6 nM | Ki [2, 4]: 1700 nM

COc1c(O)ccc2c1-c1ccc3c(c1C(c1cc(F)c(F)c(F)c1)O2)C(C)=CC(C)(C)N3 (centres unmarked) [Example 250, 2,5-Dihydro-9-hydroxy-10-methoxy-2,2,4-trimethyl-5-(3,4,5-trifluorophenyl)-1H-[1]benzopyrano[3,4-f]quinoline]
Ki [1, 3]: 2.4 nM | Ki [2, 4]: 1470 nM

COc1cccc(C2Oc3cccc(OC)c3-c3ccc4c(c32)C(C)=CC(C)(C)N4)c1 (centres unmarked) [Example 85, 2,5-Dihydro-10-methoxy-5-(3-methoxyphenyl)-2,2,4-trimethyl-1H-[1]benzopyrano[3,4-f]quinoline]
Ki [1, 3]: 3.5 nM | Ki [2, 4]: ≥ 10000 nM

COc1cc(F)cc2c1-c1ccc3c(c1C(c1ccccc1)O2)C(C)=CC(C)(C)N3 (centres unmarked) [Example 232, 8-Fluoro-10-methoxy-5-phenyl-2,2,4-trimethyl-2,5-dihydro-1H-[1]benzopyrano[3,4-f]quinoline]
Ki [1, 3]: 1.6 nM | Ki [2, 4]: 230 nM

COc1cccc2c1-c1ccc3c(c1C(c1cccc(C(=O)O)c1)O2)C(C)=CC(C)(C)N3 (centres unmarked) [Example 108, 3-(2,5-Dihydro-10-methoxy-2,2,4-trimethyl-1H-[1]benzopyrano[3,4-f]quinolin-5-yl)benzoic Acid]
Ki [1, 3]: 638 nM | Ki [2, 4]: > 10000 nM
